Experiments:
Assay type in all cases: cell-based
[1] = test system: Staphylococcus aureus 503; assay: In vitro antibacterial activity (MIC), agar dilution; conditions: 2-fold agar dilution, Muller-Hinton agar, 18 hours at 37° C., read-out: minimum inhibitory concentration (MIC)
Procedure: (§1) 10^7 cfu/ml of bacteria were inoculated and cultured for 18 hours at 37° C. and then the antibacterial activities were measured. For the methicillin resistant strains the activities were measured after 48 hours of cultivation at 30° C. Hoechst Standard strains were used for the testings.

[2] = test system: Esherichia coli 1507E; assay: as above; conditions: 2-fold agar dilution, Muller-Hinton agar, 18 hours at 37° C., read-out: minimum inhibitory concentration (MIC)
Procedure: as §1

[3] = test system: Klebsiella aerogenes 1522E; assay: as above; conditions: 2-fold agar dilution, Muller-Hinton agar, 18 hours at 37° C., read-out: minimum inhibitory concentration (MIC)
Procedure: as §1

[4] = test system: Esherichia coli DC0; assay: as above; conditions: 2-fold agar dilution, Muller-Hinton agar, 18 hours at 37° C., read-out: minimum inhibitory concentration (MIC)
Procedure: as §1

[5] = test system: Pseudomonas aeruginosa 1771; assay: as above; conditions: 2-fold agar dilution, Muller-Hinton agar, 18 hours at 37° C., read-out: minimum inhibitory concentration (MIC)
Procedure: as §1

[6] = test system: Enterobacter clocae 1321E; assay: as above; conditions: 2-fold agar dilution, Muller-Hinton agar, 18 hours at 37° C., read-out: minimum inhibitory concentration (MIC)
Procedure: as §1

[7] = test system: Klebsiella oxytoca 1082E; assay: as above; conditions: 2-fold agar dilution, Muller-Hinton agar, 18 hours at 37° C., read-out: minimum inhibitory concentration (MIC)
Procedure: as §1

[8] = test system: Pseudomonas aeruginosa 9027; assay: as above; conditions: 2-fold agar dilution, Muller-Hinton agar, 18 hours at 37° C., read-out: minimum inhibitory concentration (MIC)
Procedure: as §1

[9] = test system: Esherichia coli TEM; assay: as above; conditions: 2-fold agar dilution, Muller-Hinton agar, 18 hours at 37° C., read-out: minimum inhibitory concentration (MIC)
Procedure: as §1

[10] = test system: Streptococcus pyogens 308A; assay: as above; conditions: 2-fold agar dilution, Muller-Hinton agar, 18 hours at 37° C., read-out: minimum inhibitory concentration (MIC)
Procedure: as §1

[11] = test system: Esherichia coli 078; assay: as above; conditions: 2-fold agar dilution, Muller-Hinton agar, 18 hours at 37° C., read-out: minimum inhibitory concentration (MIC)
Procedure: as §1

[12] = test system: Streptococcus faecium MD 8b; assay: as above; conditions: Enterococcus faecium, MD8B, 2-fold agar dilution, Muller-Hinton agar, 18 hours at 37° C., read-out: minimum inhibitory concentration (MIC)
Procedure: as §1

[13] = test system: Pseudomonas aeruginosa 1771M; assay: as above; conditions: Pseudomonas aeruginosa, 1771M, 18 h, read-out: minimum inhibitory concentration (MIC)
Procedure: as §1

[14] = test system: Streptococcus pyogens 77A; assay: as above; conditions: 2-fold agar dilution, Muller-Hinton agar, 18 hours at 37° C., read-out: minimum inhibitory concentration (MIC)
Procedure: as §1

[15] = test system: Enterobacter clocae P99; assay: as above; conditions: 2-fold agar dilution, Muller-Hinton agar, 18 hours at 37° C., read-out: minimum inhibitory concentration (MIC)
Procedure: as §1

[16] = test system: Staphylococcus aureus 285; assay: as above; conditions: 2-fold agar dilution, Muller-Hinton agar, 18 hours at 37° C., read-out: minimum inhibitory concentration (MIC)
Procedure: as §1

[17] = test system: Pseudomonas aeruginosa 1592E; assay: as above; conditions: 2-fold agar dilution, Muller-Hinton agar, 18 hours at 37° C., read-out: minimum inhibitory concentration (MIC)
Procedure: as §1

[18] = test system: Salmonella typhimurium; assay: as above; conditions: Salmonella enterica, 2-fold agar dilution, Muller-Hinton agar, 18 hours at 37° C., read-out: minimum inhibitory concentration (MIC)
Procedure: as §1

[19] = test system: Staphylococcus aureus SG511; assay: as above; conditions: 2-fold agar dilution, Muller-Hinton agar, 18 hours at 37° C., read-out: minimum inhibitory concentration (MIC)
Procedure: as §1

[20] = test system: Staphylococcus aureus 695E; assay: In vitro antibacterial activity against resistant strains (MIC); conditions: resistant strain Staphylococcus aureus 695E; 2-fold agar dilution; methicillin resistant strains 48 hours at 30° C.; read-out: minimum inhibitory concentration (MIC)
Procedure: as §1

[21] = test system: Staphylococcus epidermidis 178; assay: as above; conditions: resistant strain Staphylococcus epidermidis 178; 2-fold agar dilution; methicillin resistant strains 48 hours at 30° C.; read-out: minimum inhibitory concentration (MIC)
Procedure: as §1

[22] = test system: Staphylococcus aureus 693E; assay: as above; conditions: resistant strain Staphylococcus aureus 693E; 2-fold agar dilution; methicillin resistant strains 48 hours at 30° C.; read-out: minimum inhibitory concentration (MIC)
Procedure: as §1

[23] = test system: Staphylococcus aureus 703E; assay: as above; conditions: resistant strain Staphylococcus aureus 703E; 2-fold agar dilution; methicillin resistant strains 48 hours at 30° C.; read-out: minimum inhibitory concentration (MIC)
Procedure: as §1

[24] = test system: Staphylococcus aureus 241; assay: as above; conditions: resistant strain Staphylococcus aureus 241; 2-fold agar dilution; methicillin resistant strains 48 hours at 30° C.; read-out: minimum inhibitory concentration (MIC)
Procedure: as §1

[25] = test system: Staphylococcus aureus 179; assay: as above; conditions: resistant strain Staphylococcus aureus 179; 2-fold agar dilution; methicillin resistant strains 48 hours at 30° C.; read-out: minimum inhibitory concentration (MIC)
Procedure: as §1

[26] = test system: Staphylococcus aureus 293; assay: as above; conditions: resistant strain Staphylococcus aureus 293; 2-fold agar dilution; methicillin resistant strains 48 hours at 30° C.; read-out: minimum inhibitory concentration (MIC)
Procedure: as §1

[27] = test system: Staphylococcus aureus 692E; assay: as above; conditions: resistant strain Staphylococcus aureus 692E; 2-fold agar dilution; methicillin resistant strains 48 hours at 30° C.; read-out: minimum inhibitory concentration (MIC)
Procedure: as §1

[28] = test system: Staphylococcus aureus 8236; assay: as above; conditions: resistant strain Staphylococcus aureus 8236; 2-fold agar dilution; methicillin resistant strains 48 hours at 30° C.; read-out: minimum inhibitory concentration (MIC)
Procedure: as §1

[29] = test system: Staphylococcus aureus 256E; assay: as above; conditions: resistant strain Staphylococcus aureus 256E; 2-fold agar dilution; methicillin resistant strains 48 hours at 30° C.; read-out: minimum inhibitory concentration (MIC)
Procedure: as §1

[30] = test system: Staphylococcus aureus 121E; assay: as above; conditions: resistant strain Staphylococcus aureus 121E; 2-fold agar dilution; methicillin resistant strains 48 hours at 30° C.; read-out: minimum inhibitory concentration (MIC)
Procedure: as §1

[31] = test system: Staphylococcus aureus 697E; assay: as above; conditions: resistant strain Staphylococcus aureus 697E; 2-fold agar dilution; methicillin resistant strains 48 hours at 30° C.; read-out: minimum inhibitory concentration (MIC)
Procedure: as §1

[32] = test system: Staphylococcus aureus 208E; assay: as above; conditions: resistant strain Staphylococcus aureus 208E; 2-fold agar dilution; methicillin resistant strains 48 hours at 30° C.; read-out: minimum inhibitory concentration (MIC)
Procedure: as §1

[33] = test system: Staphylococcus aureus 303; assay: as above; conditions: resistant strain Staphylococcus aureus 303; 2-fold agar dilution; methicillin resistant strains 48 hours at 30° C.; read-out: minimum inhibitory concentration (MIC)
Procedure: as §1

[34] = test system: Staphylococcus aureus 701E; assay: as above; conditions: resistant strain Staphylococcus aureus 701E; 2-fold agar dilution; methicillin resistant strains 48 hours at 30° C.; read-out: minimum inhibitory concentration (MIC)
Procedure: as §1

[35] = test system: Staphylococcus aureus 694E; assay: as above; conditions: resistant strain Staphylococcus aureus 694E; 2-fold agar dilution; methicillin resistant strains 48 hours at 30° C.; read-out: minimum inhibitory concentration (MIC)
Procedure: as §1

[36] = test system: Staphylococcus aureus 88E; assay: as above; conditions: resistant strain Staphylococcus aureus 88E; 2-fold agar dilution; methicillin resistant strains 48 hours at 30° C.; read-out: minimum inhibitory concentration (MIC)
Procedure: as §1

[37] = test system: Staphylococcus epidermidis 291; assay: as above; conditions: resistant strain Staphylococcus epidermidis 291; 2-fold agar dilution; methicillin resistant strains 48 hours at 30° C.; read-out: minimum inhibitory concentration (MIC)
Procedure: as §1

[38] = test system: Staphylococcus aureus 690E; assay: as above; conditions: resistant strain Staphylococcus aureus 690E; 2-fold agar dilution; methicillin resistant strains 48 hours at 30° C.; read-out: minimum inhibitory concentration (MIC)
Procedure: as §1

CCON=C1CN(c2c(F)c(N)c3c(=O)c(C(=O)O)cn(C4CC4)c3c2F)CC12CNC2.CS(=O)(=O)O [Example 9, 1-Cyclopropyl-5-amino-6,8-difluoro-7-[8-(ethoxyimino)-2,6-diazaspiro[3,4]oct-6-yl]-4-oxo-1,4-dihydro-3-quinolinecarboxylic acid methanesulfonate]
MIC [1]: < 0.002 µg/mL
MIC [2]: 0.013 µg/mL
MIC [3]: 0.049 µg/mL
MIC [4]: 0.195 µg/mL
MIC [5]: 0.781 µg/mL
MIC [6]: 0.007 µg/mL
MIC [7]: < 0.002 µg/mL
MIC [8]: 0.781 µg/mL
MIC [9]: 0.013 µg/mL
MIC [10]: 0.025 µg/mL
MIC [11]: 0.004 µg/mL
MIC [12]: 0.049 µg/mL
MIC [13]: 0.391 µg/mL
MIC [14]: 0.004 µg/mL
MIC [15]: 0.007 µg/mL
MIC [16]: 0.007 µg/mL
MIC [17]: 0.781 µg/mL
MIC [18]: 0.007 µg/mL
MIC [19]: < 0.002 µg/mL
MIC [20]: 0.013 µg/mL
MIC [21]: 0.391 µg/mL
MIC [22]: 0.013 µg/mL
MIC [23]: 0.013 µg/mL
MIC [24]: 0.098 µg/mL
MIC [25]: 0.098 µg/mL
MIC [26]: 0.098 µg/mL
MIC [27]: 0.007 µg/mL
MIC [28]: 0.098 µg/mL
MIC [29]: 0.013 µg/mL
MIC [30]: 0.013 µg/mL
MIC [31]: 0.004 µg/mL
MIC [32]: 0.013 µg/mL
MIC [33]: 0.098 µg/mL
MIC [34]: 0.013 µg/mL
MIC [35]: 0.013 µg/mL
MIC [36]: 0.007 µg/mL
MIC [37]: 0.391 µg/mL
MIC [38]: 0.007 µg/mL

From patent US6552196B2, “Quinolone carboxylic acid derivatives” (Dong Wha Pharmaceutical Industrial Co., Ltd., priority 1997, dated 2003)
